Where two headings read alike, the source gives them in different places.
How the values were obtained:
[1] = system: Aspergillus. oryzae; settings: 5 days, 28 C
Description: The experiments were done using a lipid producing fungal strain Aspergillus. oryzae. From the sporulating fungus grown on PDA-plates a spore suspension was made by adding 12 ml of sterile water and the spores were scraped off with inoculation loop to the liquid. The spore suspension was used for media inoculation.
All of them contained these basic nutrients, and small amount of fine cellulose to prevent the fungus from clumping.
The organic acids were added in so the concentration of the formic and acetic acid alone was 0, 1, 3, 5 and 7 g/l, and for the two acids together 0, 1, 3, 5, 7 and 9 g/l. After this the pH of the media was adjusted to 5.5-6.0 using 3 M NaOH. The medium was distributed to 50 ml batches into 250 ml erlenmayer flasks. The media was sterilized in autoclave 121 C 15 min. After cooling down, each flask was inoculated using 0.5 ml spore suspension mentioned earlier. For each concentration, parallel cultivations were made. The cultivations were incubated in 160 rpm shaking at 28 C 5 days. The growth was observed daily with a microscope, and in the end of the cultivation the biomass and lipid contents were determined.
The biomass content was determined by vacuum filtering the whole content of the flask and washing the biomass with 50 ml of distilled water. After this the biomass cakes were frozen and dried overnight in freeze dryer. From the dries biomass the lipid content was analyzed according to Suutari et al. (1990). The lipids in the samples were first hydrolysed into free fatty acids, which were saponified into sodium salts thereof and thereafter methylated into methyl esters. The fatty methyl esters were analysed gas chromatographically.

[2] = system: Aspergillus oryzae TKK-4; assay: Effect of furfural on microbial growth, flask cultivation (Example 7); type: cell-based; settings: for DW (dry weight concentration): after 6 days of cultivation
Description: (§1) Two fungal strains Aspergillus oryzae TKK-4 and Mortierella isabellina TKK-1 and one yeast strain Lipomyces starkeyi TKK-1 were cultivated in flasks in a standard medium (Table 12) with furfural addition. The microorganisms were grown for 6 days in 28° C. with 160 rpm (for fungi) and 250 rpm (for yeast). Cellulose was added to help the fungus grow with a better morphology. Furfural was added in different amounts into the medium (0-4 g/l) and the growth of the microorganisms was observed.

[3] = system: Mortierella isabellina TKK-1; assay: as above; type: cell-based; settings: for DW (dry weight concentration): after 6 days of cultivation
Description: as §1

[4] = system: Lipomyces starkeyi TKK-1; assay: as above; type: cell-based; settings: for DW (dry weight concentration): after 6 days of cultivation
Description: as §1

Row | SMILES | Biomass concentration ([1]; acid concentration 1 g/l) [g/L] | Lipid content ([1]; acid concentration 1 g/l) [% from cell dry weight] | Biomass concentration ([1]; acid concentration 3 g/l) [g/L] | Lipid content ([1]; acid concentration 3 g/l) [% from cell dry weight] | Biomass concentration ([1]; acid concentration 5 g/l) [g/L] | Lipid content ([1]; acid concentration 5 g/l) [% from cell dry weight] | Biomass concentration ([1]; acid concentration 7 g/l) [g/L] | Lipid content ([1]; acid concentration 7 g/l) [% from cell dry weight] | further results
1 | CC(=O)O [Acetic acid, acetic acid] | 12.4 | 19.8 | 11.4 | 20.7 | 11.1 | 21.2 | 11.5 | 24.3 | –
2 | O=CO [Formic acid, formic acid] | 12.5 | 19.5 | 12.0 | 19.5 | 11.2 | 15.9 | 10.9 | 19.8 | –
3 | O=Cc1ccco1 [Furfural] | – | – | – | – | – | – | – | – | Furfural concentration in which the microbe grew ([2]; after one week): 0.5 g/L; Furfural concentration that inhibited the growth completely ([2]; after one week): ≥ 0.75 g/L; DW (dry weight concentration) ([2]; furfural 0.1 g/l): 18.18 g/L; DW (dry weight concentration) ([2]; furfural 0.2 g/l): 16.54 g/L; DW (dry weight concentration) ([2]; furfural 0.3 g/l): 13.53 g/L; DW (dry weight concentration) ([2]; furfural 0.4 g/l): 11.58 g/L; Furfural concentration in which the microbe did not grow [3]: ≥ 1 g/L; Furfural concentration in which some growth was observed ([3]; after 4-6 days): 0.8 g/L; DW (dry weight concentration) ([3]; furfural 0.2 g/l): 7.02 g/L; DW (dry weight concentration) ([3]; furfural 0.4 g/l): 13.80 g/L; DW (dry weight concentration) ([3]; furfural 0.6 g/l): 14.96 g/L; DW (dry weight concentration) ([3]; furfural 0.8 g/l): 9.28 g/L; Inhibiting concentration of furfural [4]: ≥ 1.8 g/L; Furfural concentration in which the microbe grew ([4]; after a few days): 1.2 g/L; DW (dry weight concentration) ([4]; furfural 0.6 g/l): 14.79 g/L; DW (dry weight concentration) ([4]; furfural 1.2 g/l): 14.39 g/L

Reference: patent publication US9890403B2, “Method for producing single cell oil from lignocellulosic materials” (NESTE OYJ, priority 2013, dated 2018)
